From PMC6435570, “Zafirlukast Is a Dual Modulator of Human Soluble Epoxide Hydrolase and Peroxisome Proliferator-Activated Receptor γ” (Frontiers in Pharmacology, 2019)
Where “and” joins values, the source holds several entries; their conditions need not be identical. Equal entries are not always repeated. Entries after “also recorded” stand apart in the source; their conditions may differ.

What was measured:
3T3-L1 cells [1] = assay: 3T3-L1 adipocyte differentiation, Oil Red O lipid accumulation; assay type: cell-based, murine; conditions: differentiation cocktail plus zafirlukast or montelukast 1, 5, 10 μM or rosiglitazone 2 μM; 14 days
Method: 3T3-L1 cells were differentiated into adipocytes for 14 days according to the protocol of [Zebisch et al. (2012)]. For this, cells were seeded in 6-well plates ([…]) and differentiation was induced after 48 h by addition of a differentiation cocktail containing 1 μg/mL insulin, 0.25 μM dexamethasone and 0.5 mM isobutylmethylxanthine (IBMX) in DMEM supplemented with 10% FCS and 1% PS. […] After 2 days, medium was replaced by DMEM supplemented with 10% FCS, 1% PS and 1 μg/mL insulin for 2 more days. Afterwards, cells were kept for lipid droplet accumulation in DMEM containing 10% FCS and 1% PS until day 15. Media were replaced every other day.
Differentiated 3T3-L1 cells were washed with PBS and subsequently fixed for 60 min with formaldehyde (4% in PBS). Afterwards, cells were thoroughly rinsed with 60% isopropanol and incubated with Oil Red O solution (0.3% in 60% isopropanol) for 120 min. This was followed by the removal of the staining solution and thorough rinsing of the cell layer with ultrapure water. Finally, the plates were dried and pictures of the stained cell layers were taken.
For quantification of the accumulated dye, 3T3-L1 cells were seeded in 24-well plates (0.55 × 10^5/well) instead of 6-wells and the differentiation was carried out as described in the section ‘Adipocyte differentiation’. After 14 days of differentiation, cells were fixed and stained as described above. […] 100 μl of dye extract were transferred to a 96-well plate and absorbance was measured (λabs = 510 nm) by an Infinite F200 plate reader (Tecan Group Ltd., Männedorf, Switzerland). […]
As master regulator of adipocyte differentiation in men and mice, PPARγ plays a crucial role in the cell’s commitment to the adipocyte lineage by controlling important functions such as intracellular biosynthesis, transport and accumulation of lipids. […] Upon differentiation, different parameters such as lipid accumulation and PPARγ target gene expression can be assessed to investigate the PPARγ activating potential of the compounds of interest. […]

3T3-L1 cells [2] = assay: WST-1 assay (mitochondrial activity) in differentiating 3T3-L1 cells; assay type: cell-based, murine; conditions: 48 h with differentiation cocktail
Method: For measurement of cell proliferation, 3T3-L1 cells were seeded in 24-well plates (0.55 × 10^5/well) instead of 6-wells and the differentiation was carried out as described in the section ‘Adipocyte differentiation’. After 2 days of incubation with the differentiation cocktail with or without the PPARγ agonists, WST-1 reagent (Roche Diagnostic GmbH, Mannheim, Germany) was added (1:10) to the supernatant of the differentiating cells. Then, the cells were further incubated for 2 h at 37°C, 5% CO2 to allow color development. After this, cell supernatant absorbance was measured (λabs = 450 nm) and corrected to a reference wavelength (λabs = 690 nm) with an Infinite F200 plate reader (Tecan Group Ltd., Männedorf, Switzerland). After this, background absorbance was subtracted from all measurements and values were normalized to the differentiated control receiving the differentiation cocktail without addition of a PPARγ agonist (w/o).
In addition to lipid accumulation, mitochondrial activity of 3T3-L1 cells during differentiation was investigated by the turnover of the tetrazolium salt WST-1 into a formazan dye. This provides not only further information on the metabolic capacity of the cells after differentiation but can also indicate toxicity of compounds. For this, 3T3-L1 cells were treated with the differentiation cocktail in the presence or absence of PPARγ agonists for 48 h. After this, WST-1 turnover as a measure for mitochondrial activity was assessed (Figure 2C).

sEH (HEP-G2) = biological target: T1, sEH (HEP-G2) (Homo sapiens, UniProt P34913); assay: sEH activity in HEP-G2 cell lysates (14(15)-EET-d11 to DHET-d11, LC-MS/MS); assay type: biochemical; conditions: HEP-G2 cell homogenate, (±)14(15)-EET-d11 substrate, DHET formation by LC-MS/MS
T1 construct: 1 μg of total cell homogenate diluted in 100 μl of PBS; endogenous in cells; host or cells: HEP-G2
T1 sequence (P34913 1-555): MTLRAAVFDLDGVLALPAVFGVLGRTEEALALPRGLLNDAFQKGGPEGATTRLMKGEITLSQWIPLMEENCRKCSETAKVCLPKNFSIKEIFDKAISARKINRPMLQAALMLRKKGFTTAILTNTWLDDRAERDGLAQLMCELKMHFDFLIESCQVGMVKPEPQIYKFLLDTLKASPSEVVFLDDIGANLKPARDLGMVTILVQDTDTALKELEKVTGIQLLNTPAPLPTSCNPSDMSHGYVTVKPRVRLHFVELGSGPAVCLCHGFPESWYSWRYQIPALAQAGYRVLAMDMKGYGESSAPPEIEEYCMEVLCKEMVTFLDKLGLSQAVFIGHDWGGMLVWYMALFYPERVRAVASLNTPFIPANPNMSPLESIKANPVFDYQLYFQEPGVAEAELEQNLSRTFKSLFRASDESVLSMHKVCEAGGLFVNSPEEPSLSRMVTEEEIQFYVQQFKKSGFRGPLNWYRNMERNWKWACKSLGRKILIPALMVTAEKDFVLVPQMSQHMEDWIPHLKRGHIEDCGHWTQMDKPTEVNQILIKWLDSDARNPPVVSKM
Method: Quantification of cellular sEH metabolic activity was performed as described by [Zha et al. (2014)]. For this, HEP-G2 cells were harvested, washed twice with PBS and sonicated in PBS for disruption of cell integrity. Then, 1 μg of total cell homogenate diluted in 100 μl of PBS containing 0.1 mg/ml BSA was incubated with the compounds or vehicle for 15 min at 37°C. After this, 25 ng (±)14(15)-EET-d11 (Cayman Chemical, Ann Arbor, MI, United States) were added per sample and the incubation was continued for additional 10 min at 37°C. A blank was performed using PBS (containing 0,1 mg/mL BSA). The reactions were stopped by adding 100 μL of ice cold methanol. After centrifugation (2000 rpm, 4°C, 5 min), supernatants were analyzed by LC-MS/MS and the amounts of (±)14(15)-EET-d11 and the corresponding (±)14(15)-DHET-d11 were determined.
14(15)-EET-d11 and 14(15)-DHET-d11 content of the extracted samples were analyzed employing liquid chromatography tandem mass spectroscopy (LC-MS/MS). The LC/MS-MS system comprised an API 5500 QTrap (Sciex, Darmstadt, Germany), equipped with a Turbo-V-source operating in negative ESI mode, an Agilent 1200 binary HPLC pump and degasser (Agilent, Waldbronn, Germany) and an HTC Pal autosampler (Chromtech, Idstein, Germany) fitted with a 25 μL LEAP syringe (Axel Semrau GmbH, Sprockhövel, Germany). High purity nitrogen for the mass spectrometer was produced by a NGM 22-LC/MS nitrogen generator (cmc Instruments, Eschborn, Germany). All substances were obtained from Cayman Chemical, Ann Arbor, MI, United States. Stock solutions with 2,500 ng/mL of both analytes were prepared in methanol. Working standards were obtained by further dilution with a concentration range of 0.1–250 ng/mL for 14(15)-EET-d11 and 14(15)-DHET-d11. Sample extraction was performed with liquid–liquid-extraction. Therefore, 150 μL of matrix homogenates were gently mixed with 20 μL of internal standard [14(15)-EET and 14(15)-DHET all with a concentration of 100 ng/ml in methanol], and were extracted twice with 600 μL of ethyl acetate. Samples for standard curve and quality control were prepared similarly, instead of 150 μL of matrix homogenates, 150 μL PBS were added. Further 20 μL methanol, 20 μL working standard and 20 μL internal standard were added. The organic phase was removed at a temperature of 45°C under a gentle stream of nitrogen. The residues were reconstituted with 50 μL of methanol/water/(50:50, v/v), centrifuged for 2 min at 10,000 g and then transferred to glass vials (Macherey-Nagel, Düren, Germany) prior to injection into the LC-MS/MS system. For the chromatographic separation a Gemini NX C18 column and pre-column were used (150 mm × 2 mm i.d., 5 μm particle size and 110 Å pore size from Phenomenex, Aschaffenburg, Germany). A linear gradient was employed at a flow rate of 0.5 mL/min mobile phase with a total run time of 17.5 min. Mobile phase was A water/ammonia (100:0.05, v/v) and B acetonitrile/ammonia (100:0.05, v/v). The gradient started from 85% A to 10% within 12 min. This was held for 1 min at 10% A. Within 0.5 min the mobile phase shifted back to 85% A and was held for 3.5 min to equilibrate the column for the next sample. The injection volume of samples was 20 μL. Quantification was performed with Analyst Software V 1.5.1 (Sciex, Darmstadt, Germany) employing the internal standard method (isotope- dilution mass spectrometry). Ratios of analyte peak area and internal standard area (y-axis) were plotted against concentration (x-axis) and calibration curves were calculated by least square regression with 1/concentration^2 weighting.

SMILES	Lipid accumulation (Oil Red O staining) (3T3-L1 cells [1])	WST-1 turnover (mitochondrial activity) versus w/o control (3T3-L1 cells [2]; 10 μM)	IC50 (sEH (HEP-G2))	WST-1 turnover (mitochondrial activity) versus w/o control (3T3-L1 cells [2]; 1 μM)	WST-1 turnover (mitochondrial activity) versus w/o control (3T3-L1 cells [2]; 5 and 10 μM)
CC(C)(O)c1ccccc1CC[C@@H](SCC1(CC(=O)O)CC1)c1cccc(/C=C/c2ccc3ccc(Cl)cc3n2)c1 [Montelukast, montelukast]	did not trigger any lipid accumulation; also recorded: did not induce cell lipid accumulation	over threefold	1.9 µM and 1.95 µM	–	–
COc1cc(C(=O)NS(=O)(=O)c2ccccc2C)ccc1Cc1cn(C)c2ccc(NC(=O)OC3CCCC3)cc12 [Zafirlukast, zafirlukast]	induced lipid accumulation in a dose-dependent manner, but to a lesser extend compared to rosiglitazone	–	0.8 µM and 0.82 µM	threefold	comparable to the w/o control; also recorded: had no influence on mitochondrial activity
